The structures appear in SMILES notation. Values after ≈ are worked out from the molar mass of the structure shown. “Also recorded” adds a separate entry of the source. Like-named read-outs stand apart in the source and are kept apart here.

The values that follow come from PMC5815658 (Journal of Medicinal Chemistry, 2017).

Data set [1] can be described thus: PDP aqueous stability protocol. As to conditions: 37 °C, pH 7.4 phosphate buffer.
A short description of data set [2]: Chemical stability as solid and in DMSO stock solution. The format is physicochemical. The conditions noted are these: room temperature, data not shown.
In data set [3] the target is T1, pirin protein in SK-OV-3 human ovarian cancer cells (Homo sapiens, UniProt O00625).
T1 construct: endogenous in cells; host or cells: SK-OV-3
T1 sequence (O00625 1-290): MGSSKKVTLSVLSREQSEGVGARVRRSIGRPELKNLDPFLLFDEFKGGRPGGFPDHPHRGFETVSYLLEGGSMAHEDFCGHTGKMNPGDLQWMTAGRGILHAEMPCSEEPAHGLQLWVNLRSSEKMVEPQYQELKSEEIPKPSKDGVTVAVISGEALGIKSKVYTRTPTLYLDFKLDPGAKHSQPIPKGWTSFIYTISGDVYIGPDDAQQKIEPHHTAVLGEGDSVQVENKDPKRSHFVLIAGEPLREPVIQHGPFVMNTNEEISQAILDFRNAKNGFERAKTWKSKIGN
Description: Pirin depletion in SK-OV-3 cells (immunoblot / capillary electrophoresis immunoassay). The data set is classed as cell-based. The conditions noted are these: SK-OV-3 cells, Figure S18. On the procedure: in vivo in athymic mice to increase its tumorigenicity and reliability as a xenograft, and used within 10 passages of banked stocks.
(§1) Prior to use, the cells were analyzed by short tandem repeat (STR) profiling. Polymorphic STR loci were amplified using a polymerase chain reaction (PCR) primer set. The PCR product (each locus being labelled with a different fluorophore) was analyzed simultaneously with size standards using automated fluorescent detection. The number of repeats at 10 different loci (as recommended by the American Type Culture Collection, ATCC) was used to define the STR profile and this was cross-referenced with online databases to confirm authenticity. […]
the ATCC reference line (LGC Promochem, UK). […]
nested PCR protocol (Venor GeM kit, Minerva Biolabs, Germany). Cells were grown in DMEM/10 % FCS, 2 mM glutamine and nonessential amino acids in 5 % CO2.
SK-OV-3 cells were treated as for each experimental condition. Cells were harvested and lysed by scraping in urea lysis buffer (20 mM HEPES pH 8.0, 9 M urea, 1 mM sodium orthovanadate, 2.5 mM sodium pyrophosphate, 1 mM β-glycerophosphate). […]
of samples was determined using a bicinchoninic acid (BCA) protein assay kit (Thermo Fisher Scientific). Western blotting was carried out as previously described.10 Pirin and GAPDH antibodies were obtained from Abcam (ab157212) and Merck […]
Samples were treated, harvested and lysed as described above. A total of 5 μL of 0.2 mg/mL protein was loaded into plates and capillary western analysis was carried out according to the manufacturer’s instructions (ProteinSimple WES). The data was analyzed with the Compass software (ProteinSimple).
Sigma-Aldrich and Cell Signaling Technology, respectively.
10 Sharp SY, Boxall K, Rowlands M, Prodromou C, Roe SM, Maloney A, Powers M, Clarke PA, Box G, Sanderson S, Patterson L, Matthews TP, Cheung KM, Ball K, Hayes A, Raynaud F, Marais R, Pearl L, Eccles S, Aherne W, McDonald E, Workman P. In vitro biological characterization of a novel, synthetic diaryl pyrazole resorcinol class of heat shock protein 90 inhibitors.

Data set [4] can be described thus: LogD7.4 determination by RP-HPLC. As to conditions: pH 7.4.
Another data set concerns the target T2, CRBN-DDB1 complex (Homo sapiens, UniProt Q96SW2).
T2 construct: His6-ZZ-HRV3C (N); made in house; host or cells: Sf9 insect cells (baculovirus co-infection)
The experiment in a line: CRBN/DDB1 fluorescence polarization competition assay. The format is binding. The method, then: CRBN/DDB1 Fluorescence Polarization Assay […]
Unless otherwise stated, the aqueous assay buffer contained 0.02 M HEPES((4-(2-hydroxyethyl)-1-piperazineethanesulfonic acid)) pH 8.0, 0.15 M NaCl, 0.5 mM TCEP ((tris(2-carboxyethyl)phosphine)), 0.05% Tween 20. The assay was conducted using 384 well black plates (ProxiPlate F Plus, Perkin-Elmer, Massachusetts, USA).
Plate Reader. […] Fluorescence […]
polarization was measured in units of millipolarization (mP) and are background corrected. Data were plotted and analyzed using […]
All experiments were performed in triplicate unless otherwise stated. Values are quoted as the geometric […]
Each graph is a representative example of a single biological repeat unless otherwise stated.
CRBN/DDB1 Protein Expression & Purification
Protein expression and purification methods adapted from Lopez-Girona et al.5 Full length human CRBN (accession number NM016302) was amplified by PCR & inserted downstream of the polyhedrin promoter of a pFBDM expression vector which had been modified to introduce a N-terminal His6-ZZ-HRV3C tag. Full length human DDB1 (accession number NM001923) was amplified by PCR with primers which introduced a C-terminal StrepTag and inserted downstream of the p10 promoter of a separate pFBDM expression vector. Baculoviruses were generated according to Bac-to-Bac protocols (Invitrogen) and used to co-infect Sf9 cells grown @ 27 °C in shaker flasks using Insect-XPRESS media (Lonza). Cells were harvested 48 hours post infection and frozen. For purification, pellets were thawed & resuspended in 5 volumes of Histrap buffer A (see below) and lysed […]
Superdex 200 (HiLoad 26/600), ResourceQ (6 mL) and finally a second Superdex 200 (HiLoad 26/600) column. All columns were from GE Healthcare and all purification steps were performed @ 4 °C. HisTrap buffer A: 50mM Tris (2-Amino-2-(hydroxymethyl)propane-1,3-diol), 500mM NaCl, 0.5mM TCEP ((tris(2-carboxyethyl)phosphine), 5% glycerol, pH 8.0. HisTrap Buffer B: + 250 mM imidazole. Superdex 200 buffer: 50mM Tris, 200mM NaCl, 0.5mM TCEP, 5% glycerol, pH 8.0. Resource Q buffer A: 50mM Tris, 0.5mM TCEP, 5% Glycerol, pH8.0. Resource Q buffer B + 1M NaCl.
California, USA) to prepare CRBN/DDB1 concentrations from 0.1 to 500 nM in 10 µL final assay volume containing 5 nM FP- […]
point prior to analysis. The KD was calculated using non-linear regression and a one-site specific binding model.
Analysis of competition assay FP-probe bound fraction […]
fb=probe bound fraction, KD=probe dissociation constant, L0=probe concentration, R0=protein concentration, Ki=ligand […]
CRBN/DDB1 Competition Assay
Compounds as solutions in DMSO were dispensed using an ECHO 550 Liquid Handler (Labcyte Inc).
Tracer controls (5 nM FP-probe S18 assay buffer only) and bound tracer controls (5 nM and 80 nM CRBN/DDB1) were included on each assay plate . Plates were incubated overnight at 4 °C before warming to room temperature and fluorescence polarization measured using an EnVision plate reader (Perkin -Elmer, Massachusetts, USA). IC 50 values […]
Table S2. CRBN/DDB1 Control Compounds

For another data set, the target named is T3, pirin (Homo sapiens, UniProt O00625).
T3 sequence (O00625 1-290): T1 sequence (O00625 1-290)
Description: Pirin SPR (surface plasmon resonance) binding.

The nature of data set [5]: Kinetic solubility determination by RP-HPLC. As to conditions: PBS, pH 7.4, aqueous buffer, kinetic from dmso stock.
A further data set deals with T4, CRBN (Homo sapiens, UniProt Q96SW2).
T4 construct: endogenous in cells; host or cells: SK-OV-3
The experiment in a line: Rescue of PDP 16 pirin depletion by CRBN-binding competitive ligand in SK-OV-3 cells. The data set is classed as cell-based. The conditions noted are these: 10 μM, 4 h pretreatment, then PDP 16 (5 nM) 2 h. On the procedure:
Cell line: The human ovarian carcinoma cell line (SK-OV-3) was obtained from an ICR collaborator in the 1990s. It was passaged in vivo in athymic mice to increase its tumorigenicity and reliability as a xenograft, and used within 10 passages of banked stocks.
as §1
the ATCC reference line (LGC Promochem, UK). The cells were free of mycoplasma contamination as determined by a sensitive nested PCR protocol (Venor GeM kit, Minerva Biolabs, Germany). […]
Samples were sonicated and centrifuged at 20,000 x g for 15 min and the protein extract (supernatant) collected. The total protein of samples was determined using a bicinchoninic acid (BCA) protein assay kit (Thermo Fisher Scientific). […]
Samples were treated, harvested and lysed as described above. […] The data was analyzed with the Compass software (ProteinSimple). […]

With `O=C(COc1cccc2c1C(=O)N(C1CCC(=O)NC1=O)C2=O)NCCOCCC(=O)N1CCN(Cc2ccc3cc(C(=O)Nc4cc(NC(=O)c5ccc6c(c5)OCCO6)ccc4F)ccc3n2)CC1` (stereo not shown) [PDP 10, N-(5-(2,3-Dihydrobenzo[b][1,4]dioxine-6-carboxamido)-2-fluorophenyl)-2-((4-(3-(2-(2-((2-(2,6-dioxopiperidin-3-yl)-1,3-dioxoisoindolin-4-yl)oxy)acetamido)ethoxy)propanoyl)piperazin-1-yl)methyl)quinoline-6-carboxamide], the “Half-life (aqueous stability)” value in data set [1] is given as approximately 4 h. The half-life at 100 µM in data set [1] (phosphate buffer (PBS), pH 7.4, Half-life (aqueous stability)) is 4.1 h. For the same compound, the “Time stable as a solid and in DMSO stock solution” value in data set [2] is more than 1 month. In data set [3] (3.0 μM total concentration, up to 48 h), the “Depletion of intracellular pirin expression” value was “clear and time-dependent depletion of intracellular pirin expression”. Besides, the “Compound exposure needed before pirin degradation was observed” value in data set [3] is “at least 24 h”. Also, the chromatographic logD in data set [4] was 1.9. For the same compound, the IC50 on CRBN-DDB1 complex (CRBN/DDB1 FP IC50, single repeat N=2, best-fit value, variable slope four parameters) is 331 nM; on CRBN-DDB1 complex (best-fit value, variable slope four parameters, read-out: CRBN/DDB1 FP IC50, single repeat N=1), 568 nM; at CRBN-DDB1 complex (best-fit value, variable slope four parameters, read-out: CRBN/DDB1 FP IC50, single repeat N=3), 377 nM; on CRBN-DDB1 complex (column statistics, read-out: CRBN/DDB1 FP pIC50, mean of 3 values (unrounded) (converted)), 414 nM; on CRBN-DDB1 complex (displacement of thalidomide derived fluorescent probe, geometric mean n = 3, read-out: CRBN/DDB1 FP IC50), 410 nM; at CRBN-DDB1 complex (n = 3 independent biological repeats, read-out: CRBN/DDB1 FP pIC50±SEM (converted)), 417 nM. Also, the Ki at CRBN-DDB1 complex (calculated from geometric mean CRBN-DDB1 IC50 and FP-probe KD) is 95 nM. Moreover, the Kd on pirin (Pirin SPR KD, equilibrium analysis, one site specific binding model, geometric mean n = 3) is 230 nM; on pirin (Pirin SPR KD, representative single repeat, best-fit value, one site specific binding) it was 224 nM; on pirin (Pirin SPR pKD±SEM, n = 3 independent biological repeats), 234 nM. For the same compound, the “Measured Rmax/Theoretical Rmax” value on pirin (SPR) is 0.40. The compound further showed a solubility (kinetic) at 120 min in data set [5] of 5 µM (≈ 4.85 µg/mL).

As to `O=C1CCC(N2C(=O)c3ccccc3C2=O)C(=O)N1` (stereo not shown) [Thalidomide], on CRBN, the “Rescue of pirin depletion by thalidomide pretreatment” value is given as “rescues pirin protein depletion; also recorded: successfully rescued pirin depletion”.
